Measurements reported in US20250236608A1, “EGFR INHIBITORS” (Blueprint Medicines Corporation, priority 2022, published 2025).
pIC50: −log10 of the molar value.

Legend:
[1] = biological target: pEGFR (Tyr1068) in PC-9 cells (Ex19Del) (Homo sapiens (Human), UniProt P00533, DEL746-750); assay: PC-9 pEGFR AlphaLISA assay; assay type: cell-based; details: 4 hours incubation, p-EGFR (Tyr1068) AlphaLISA, read-out: Ext pEGFR_PC-9 Ex19Del IC50
Procedure, shortened: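 Readout: AlphaLISA SureFire Ultra signal in cell lysates, with acceptor beads for 1.5-2 h and donor beads overnight at room temperature in the dark. Beforehand, unstimulated cells in 10% FBS medium received compounds (10 points, 4-fold steps) for 4 h at 37° C. IC50 came from percent inhibition curves.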

[2] = biological target: EGFR (d746-750) (Homo sapiens (Human), UniProt P00533, DEL746-750); assay: Biochemical EGFR inhibition assay, EGFR (d746-750); details: Caliper mobility shift; 1.0 mM ATP or ATP Km; read-out: Enz EGFR_Exon19-del746-750 IC50
[3] = biological target: EGFR L858R (Homo sapiens (Human), UniProt P00533, L858R); assay: Biochemical EGFR inhibition assay, EGFR L858R; details: Caliper mobility shift; 1.0 mM ATP or ATP Km; read-out: Enz EGFR_L858R IC50
EGFR L858R, sequence (P00533 25-1210 L858R): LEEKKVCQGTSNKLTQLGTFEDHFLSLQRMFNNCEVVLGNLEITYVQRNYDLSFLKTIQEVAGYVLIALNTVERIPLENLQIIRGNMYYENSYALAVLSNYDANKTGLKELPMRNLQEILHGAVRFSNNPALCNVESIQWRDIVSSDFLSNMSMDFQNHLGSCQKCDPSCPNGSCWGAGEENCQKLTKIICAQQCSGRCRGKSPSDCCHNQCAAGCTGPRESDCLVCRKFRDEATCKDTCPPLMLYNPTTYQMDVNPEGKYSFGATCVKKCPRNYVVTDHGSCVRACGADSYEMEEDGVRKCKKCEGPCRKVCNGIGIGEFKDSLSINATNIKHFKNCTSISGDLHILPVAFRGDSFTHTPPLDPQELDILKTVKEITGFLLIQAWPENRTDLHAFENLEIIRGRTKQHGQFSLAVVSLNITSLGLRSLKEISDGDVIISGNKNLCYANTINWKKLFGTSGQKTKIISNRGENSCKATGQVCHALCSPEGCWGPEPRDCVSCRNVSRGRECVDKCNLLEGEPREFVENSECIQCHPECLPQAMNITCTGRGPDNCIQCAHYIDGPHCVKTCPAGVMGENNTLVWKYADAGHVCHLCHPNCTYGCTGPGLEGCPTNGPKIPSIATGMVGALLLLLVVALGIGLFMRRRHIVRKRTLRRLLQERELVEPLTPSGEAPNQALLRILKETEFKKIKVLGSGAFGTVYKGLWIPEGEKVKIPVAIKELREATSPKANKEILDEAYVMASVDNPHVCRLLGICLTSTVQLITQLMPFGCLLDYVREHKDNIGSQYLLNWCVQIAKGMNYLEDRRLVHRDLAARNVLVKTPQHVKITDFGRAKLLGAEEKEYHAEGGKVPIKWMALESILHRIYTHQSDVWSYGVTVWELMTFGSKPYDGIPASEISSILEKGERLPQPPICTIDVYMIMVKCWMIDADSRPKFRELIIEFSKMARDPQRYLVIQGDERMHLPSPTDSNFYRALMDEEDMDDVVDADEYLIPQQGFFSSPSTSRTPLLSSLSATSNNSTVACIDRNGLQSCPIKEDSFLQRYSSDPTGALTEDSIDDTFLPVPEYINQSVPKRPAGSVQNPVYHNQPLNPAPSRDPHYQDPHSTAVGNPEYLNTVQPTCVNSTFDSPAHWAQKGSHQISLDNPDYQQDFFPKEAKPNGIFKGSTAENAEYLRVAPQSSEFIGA

EGFR (d746-750), sequence (P00533 other isoform, or with tags, fused parts or gaps del 1-694/del 746-750 limits assumed): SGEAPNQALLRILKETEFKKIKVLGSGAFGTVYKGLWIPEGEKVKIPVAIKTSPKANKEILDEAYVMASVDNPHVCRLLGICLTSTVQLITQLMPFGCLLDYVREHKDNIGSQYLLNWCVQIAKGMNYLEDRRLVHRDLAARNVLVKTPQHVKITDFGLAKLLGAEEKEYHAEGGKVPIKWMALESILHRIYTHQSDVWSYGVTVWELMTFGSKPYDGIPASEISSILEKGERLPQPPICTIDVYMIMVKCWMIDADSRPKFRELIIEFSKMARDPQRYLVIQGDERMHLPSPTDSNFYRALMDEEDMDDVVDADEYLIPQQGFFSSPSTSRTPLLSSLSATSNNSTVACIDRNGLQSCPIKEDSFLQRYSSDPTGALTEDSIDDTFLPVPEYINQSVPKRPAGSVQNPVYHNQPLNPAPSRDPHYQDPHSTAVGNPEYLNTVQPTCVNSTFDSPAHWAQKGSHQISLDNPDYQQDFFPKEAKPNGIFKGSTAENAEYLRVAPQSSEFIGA
pEGFR (Tyr1068) in PC-9 cells (Ex19Del), sequence (P00533 other isoform, or with tags, fused parts or gaps del 746-750): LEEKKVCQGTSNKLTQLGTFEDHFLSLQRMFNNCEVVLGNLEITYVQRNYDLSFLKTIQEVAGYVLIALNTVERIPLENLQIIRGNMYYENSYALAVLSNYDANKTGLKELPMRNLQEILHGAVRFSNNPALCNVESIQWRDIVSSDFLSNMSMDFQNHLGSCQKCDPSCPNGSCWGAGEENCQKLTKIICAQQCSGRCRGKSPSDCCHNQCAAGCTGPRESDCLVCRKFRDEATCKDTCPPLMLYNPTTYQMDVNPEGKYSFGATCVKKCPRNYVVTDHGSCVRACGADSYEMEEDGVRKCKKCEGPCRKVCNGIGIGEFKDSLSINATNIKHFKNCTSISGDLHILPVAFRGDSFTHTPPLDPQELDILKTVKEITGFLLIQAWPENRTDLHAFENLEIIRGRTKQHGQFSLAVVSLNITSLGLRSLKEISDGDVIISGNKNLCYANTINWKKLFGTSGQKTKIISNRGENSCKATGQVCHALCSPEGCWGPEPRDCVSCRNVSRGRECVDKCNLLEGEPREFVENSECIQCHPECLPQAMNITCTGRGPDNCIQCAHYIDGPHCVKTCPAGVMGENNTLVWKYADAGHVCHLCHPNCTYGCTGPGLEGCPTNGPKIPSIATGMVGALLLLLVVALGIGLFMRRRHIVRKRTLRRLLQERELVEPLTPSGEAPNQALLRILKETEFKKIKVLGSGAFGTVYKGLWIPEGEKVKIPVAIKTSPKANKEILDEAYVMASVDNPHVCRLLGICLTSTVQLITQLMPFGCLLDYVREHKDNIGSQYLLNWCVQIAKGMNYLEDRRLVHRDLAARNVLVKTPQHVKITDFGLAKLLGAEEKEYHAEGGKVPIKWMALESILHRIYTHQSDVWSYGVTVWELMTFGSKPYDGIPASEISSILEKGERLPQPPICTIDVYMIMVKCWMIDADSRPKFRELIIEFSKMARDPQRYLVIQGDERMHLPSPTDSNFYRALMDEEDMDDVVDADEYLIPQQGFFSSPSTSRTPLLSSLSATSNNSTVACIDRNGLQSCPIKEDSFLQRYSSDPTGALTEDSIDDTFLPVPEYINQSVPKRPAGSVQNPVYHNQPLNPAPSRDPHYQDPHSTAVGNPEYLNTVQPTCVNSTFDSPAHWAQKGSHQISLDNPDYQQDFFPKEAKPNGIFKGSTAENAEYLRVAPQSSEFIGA

Row | SMILES | pIC50 [1] | pIC50 [2] | pIC50 [3]
1 | CCOc1cc2ncnc(-c3cn(C)nc3-c3ccccc3)c2cc1NC(=O)c1cnn(CC)c1 [Example 298, N-(7-ethoxy-4-(1-methyl-3-phenyl-1H-pyrazol-4-yl)quinazolin-6-yl)-1-ethyl-1H-pyrazole-4-carboxamide] | 9.00 | 9.05 | 8.80
2 | COc1cc2ncnc(-c3cn(C)nc3-c3ccccc3)c2cc1NC(=O)c1cnn(CC(F)(F)F)c1 [Example 203, N-(7-methoxy-4-(1-methyl-3-phenyl-1H-pyrazol-4-yl)quinazolin-6-yl)-1-(2,2,2-trifluoroethyl)-1H-pyrazole-4-carboxamide] | 8.31 | 8.96 | 8.68
3 | COc1cc2ncnc(-c3cn(CC(F)F)nc3-c3ccccc3)c2cc1[C@@H](C)O (single isomer, unassigned) [Example 102, (R)-1-(4-(1-(2,2-difluoroethyl)-3-phenyl-1H-pyrazol-4-yl)-7-methoxyquinazolin-6-yl)ethan-1-ol or (S)-1-(4-(1-(2,2-difluoroethyl)-3-phenyl-1H-pyrazol-4-yl)-7-methoxyquinazolin-6-yl)ethan-1-ol] | 8.39 | 8.92 | 8.70
4 | CCOc1cc2ncnc(-c3cn(C)nc3-c3ccccc3)c2cc1[C@H](C)O (single isomer, unassigned) [Example 103, (S)-1-(7-ethoxy-4-(1-methyl-3-phenyl-1H-pyrazol-4-yl)quinazolin-6-yl)ethan-1-ol or (R)-1-(7-ethoxy-4-(1-methyl-3-phenyl-1H-pyrazol-4-yl)quinazolin-6-yl)ethan-1-ol] | 8.57 | 9.22 | 8.77
5 | CCOc1cc2ncnc(-c3cn(CC(F)F)nc3-c3ccccc3)c2cc1OC [Example 19, 4-(1-(2,2-difluoroethyl)-3-phenyl-1H-pyrazol-4-yl)-7-ethoxy-6-methoxyquinazoline] | 8.89 | 9.10 | 8.80
6 | COc1cc2ncnc(-c3cn(C)nc3-c3ccc(F)cc3)c2cc1NC(=O)C1(CN(C)C)CC1 [Example 211, 1-((dimethylamino)methyl)-N-(4-(3-(4-fluorophenyl)-1-methyl-1H-pyrazol-4-yl)-7-methoxyquinazolin-6-yl)cyclopropane-1-carboxamide] | 8.48 | 8.82 | 8.55
7 | CCC(=O)Nc1cc2c(-c3cn(C)nc3-c3ccccc3)ncnc2cc1-c1ncccn1 [Example 449, N-(4-(1-methyl-3-phenyl-1H-pyrazol-4-yl)-7-(pyrimidin-2-yl)quinazolin-6-yl)propionamide] | 8.72 | 9.05 | 8.89
8 | COc1cc2ncnc(-c3cn(CC(F)(F)F)nc3-c3ccccc3)c2cc1OC(=O)N1CCN(C)C[C@@H]1C [Example 60, 7-methoxy-4-(3-phenyl-1-(2,2,2-trifluoroethyl)-1H-pyrazol-4-yl)quinazolin-6-yl(S)-2,4-dimethylpiperazine-1-carboxylate] | 8.44 | 8.44 | 8.29
9 | COc1cc2ncnc(-c3cn(C)nc3-c3ccccc3)c2cc1OC(=O)N1CCOC(C)(C)C1 [Example 80, 7-methoxy-4-(1-methyl-3-phenyl-1H-pyrazol-4-yl)quinazolin-6-yl 2,2-dimethylmorpholine-4-carboxylate] | 8.02 | 8.51 | 8.22
10 | CC(C)Oc1cc2ncnc(-c3cn(C)nc3-c3ccccc3)c2cc1OC(C)C [Example 26, 6,7-diisopropoxy-4-(1-methyl-3-phenyl-1H-pyrazol-4-yl)quinazoline] | 8.10 | 8.80 | 8.54
11 | CCn1cc(-c2ncnc3cc(OC)c(NC(=O)[C@]45COC[C@H]4C5)cc23)c(-c2ccccc2F)n1 (mixture of isomers) [Example 263, (1S,5S)—N-(4-(1-ethyl-3-(2-fluorophenyl)-1H-pyrazol-4-yl)-7-methoxyquinazolin-6-yl)-3-oxabicyclo[3.1.0]hexane-1-carboxamide and (1R,5R)—N-(4-(1-ethyl-3-(2-fluorophenyl)-1H-pyrazol-4-yl)-7-methoxyquinazolin-6-yl)-3-oxabicyclo[3.1.0]hexane-1-carboxamide] | 8.57 | 9.15 | 8.77
12 | COc1cc2ncnc(-c3cn(C)nc3-c3ccccc3)c2cc1OC(=O)N1[C@H](C)CNC[C@@H]1C [Example 87, 7-methoxy-4-(1-methyl-3-phenyl-1H-pyrazol-4-yl)quinazolin-6-yl (2R,6S)-2,6-dimethylpiperazine-1-carboxylate] | 8.24 | 8.68 | 8.31
13 | CCn1cc(-c2ncnc3cc(OC)c(OC(=O)N4CCN(C)C[C@@H]4C)cc23)c(-c2ccccc2)n1 [Example 95, 4-(1-ethyl-3-phenyl-1H-pyrazol-4-yl)-7-methoxyquinazolin-6-yl(S)-2,4-dimethylpiperazine-1-carboxylate] | 8.62 | 8.77 | 8.52
14 | COc1cc2ncnc(-c3cn(C)nc3-c3ccccc3)c2cc1NC(=O)C1(C(F)(F)F)CC1 [Example 349, N-(7-methoxy-4-(1-methyl-3-phenyl-1H-pyrazol-4-yl)quinazolin-6-yl)-1-(trifluoromethyl)cyclopropane-1-carboxamide] | 8.46 | 9.00 | 8.70
15 | COc1cc2ncnc(-c3cn(C)nc3-c3ccccc3)c2nc1OC(=O)N1CCN(C)C[C@@H]1C [Example 55, 7-methoxy-4-(1-methyl-3-phenyl-1H-pyrazol-4-yl)pyrido[3,2-d]pyrimidin-6-yl (S)-2,4-dimethylpiperazine-1-carboxylate] | 8.44 | 8.70 | 8.30

Now from value to compound:

Row | pIC50 [1] | pIC50 [2] | pIC50 [3] | SMILES
16 | 9.10 | 9.22 | 9.00 | COc1cc2ncnc(-c3cn(CC4CC4)nc3-c3ccccc3)c2nc1NC(=O)[C@]12C[C@H]1CN(C)C2 (single isomer, unassigned) [Example 409, (1S,5S)—N-(4-(1-(cyclopropylmethyl)-3-phenyl-1H-pyrazol-4-yl)-7-methoxypyrido[3,2-d]pyrimidin-6-yl)-3-methyl-3-azabicyclo[3.1.0]hexane-1-carboxamide or (1R,5R)—N-(4-(1-(cyclopropylmethyl)-3-phenyl-1H-pyrazol-4-yl)-7-methoxypyrido[3,2-d]pyrimidin-6-yl)-3-methyl-3-azabicyclo[3.1.0]hexane-1-carboxamide]
17 | 8.49 | 8.92 | 8.17 | COc1cc2ncnc(-c3cn(C)nc3-c3ccccc3)c2cc1NC(=O)[C@]12COC[C@H]1C2 (single isomer, unassigned) [Example 260, (1S,5S)—N-(7-methoxy-4-(1-methyl-3-phenyl-1H-pyrazol-4-yl)quinazolin-6-yl)-5-methyl-3-oxabicyclo[3.1.0]hexane-1-carboxamide or (1R,5R)—N-(7-methoxy-4-(1-methyl-3-phenyl-1H-pyrazol-4-yl)quinazolin-6-yl)-3-oxabicyclo[3.1.0]hexane-1-carboxamide]
18 | 8.44 | 9.15 | 8.23 | COc1cc2ncnc(-c3cn(C)nc3-c3ccccc3)c2nc1NC(=O)C12CC(N(C)C)(C1)C2 [Example 404, 3-(dimethylamino)-N-(7-methoxy-4-(1-methyl-3-phenyl-1H-pyrazol-4-yl)pyrido[3,2-d]pyrimidin-6-yl)bicyclo[1.1.1]pentane-1-carboxamide]
19 | 8.11 | 8.60 | 8.25 | COc1cc2ncnc(-c3cn(C)nc3-c3ccccc3)c2cc1NC(=O)C(C)(C)N(C)C [Example 246, 2-(dimethylamino)-N-(7-methoxy-4-(1-methyl-3-phenyl-1H-pyrazol-4-yl)quinazolin-6-yl)-2-methylpropanamide]
20 | 8.96 | 9.22 | 8.70 | [2H]C([2H])([2H])n1cc(-c2ncnc3cc(OC)c(NC(=O)C4(C(F)(F)F)CC4)nc23)c(-c2ccccc2)n1 [Example 320, N-(7-methoxy-4-(1-(methyl-d3)-3-phenyl-1H-pyrazol-4-yl)pyrido[3,2-d]pyrimidin-6-yl)-1-(trifluoromethyl)cyclopropane-1-carboxamide]
21 | 9.10 | 9.15 | 8.60 | CCOc1cc2ncnc(-c3cn(C)nc3-c3ccccc3)c2nc1NC(=O)[C@]12COC[C@H]1C2 (single isomer, unassigned) [Example 379, (1S,5S)—N-(7-ethoxy-4-(1-methyl-3-phenyl-1H-pyrazol-4-yl)pyrido[3,2-d]pyrimidin-6-yl)-3-oxabicyclo[3.1.0]hexane-1-carboxamide or (1R,5R)—N-(7-ethoxy-4-(1-methyl-3-phenyl-1H-pyrazol-4-yl)pyrido[3,2-d]pyrimidin-6-yl)-3-oxabicyclo[3.1.0]hexane-1-carboxamide]
22 | 8.80 | 9.22 | 8.62 | COc1cc2ncnc(-c3cn(C)nc3-c3ccc(F)cc3)c2nc1NC(=O)[C@@]12COC[C@@H]1C2 (single isomer, unassigned) [Example 382, (1R,5R)—N-(4-(3-(4-fluorophenyl)-1-methyl-1H-pyrazol-4-yl)-7-methoxypyrido[3,2-d]pyrimidin-6-yl)-3-oxabicyclo[3.1.0]hexane-1-carboxamide or (1S,5S)—N-(4-(3-(4-fluorophenyl)-1-methyl-1H-pyrazol-4-yl)-7-methoxypyrido[3,2-d]pyrimidin-6-yl)-3-oxabicyclo[3.1.0]hexane-1-carboxamide]
